Experimental data published in patent US12427134B2, “Methods of reducing the risk of cardiovascular events in a subject with atrial fibrillation and/or atrial flutter” (priority 2019, dated 2025).

Experiments:
[1] = test system: hypertriglyceridemic patients with cardiovascular disease or at high risk for cardiovascular disease; test: REDUCE-IT: post hoc control group response analyses (placebo patients with biomarker increase vs no change/decrease); format: in vivo, human
Text: The objective of the following example was to perform a control group analysis of the ischemic events in patients from the REDUCE-IT trial, as described in Example 1. The study focused on exploring if outcomes were affected by possible malabsorption. If mineral oil in the placebo might have negatively affected statin absorption in some patients, this could have contributed to differences in outcomes between the groups.

[2] = test system: hypertriglyceridemic patients with cardiovascular disease or at high risk for cardiovascular disease; conditions: human, in vivo
Text: Compliance Control: Unless clear contraindications arise, patients were strongly encouraged to adhere to their treatment regimen with the study drug for the duration of the trial. Any interruptions of therapy were, if possible, brief (e.g., <4 weeks) and only for clinically indicated reasons, such as adverse events. Discontinuations were discouraged as much as possible. Any discontinuations were based on compelling clinical reasons. For every patient, an assessment of compliance to the study drug treatment regimen was obtained at each scheduled visit. Study medication was dispensed in amounts exceeding the amount required for the study. Patients were instructed to return all unused study medication at the next visit. Compliance to the study drug regimen was evaluated at each visit by counting unused capsules. Discrepancies were evaluated and discussed with each patient to assess compliance. […] At the end of the study, the final study medication compliance was determined by unused capsule count. […]
Occurrence of an outcome event according to the judgment of the investigator was not considered a valid reason for study drug discontinuation. Patients whose treatment with study medication was discontinued early, and had not withdrawn consent, stayed in the study and were monitored until the end of the study. […]

CC/C=C\C/C=C\C/C=C\C/C=C\C/C=C\CCCC(=O)OCC [AMR101, eicosapentaenoic acid ethyl ester]
Key secondary endpoint, HR AMR101 group versus placebo patients with an increase in LDL-C ([1]; LDL-C at one year): 0.80
Key secondary endpoint, HR AMR101 group versus placebo patients with no change or a decrease in LDL-C ([1]; LDL-C at one year): 0.74
Primary endpoint, HR AMR101 group versus placebo patients with an increase in LDL-C ([1]; LDL-C at one year): 0.79
Primary endpoint, HR AMR101 group versus placebo patients with no change or a decrease in LDL-C ([1]; LDL-C at one year): 0.79
Key secondary endpoint, HR AMR101 group versus placebo patients with an increase in hsCRP ([1]; hsCRP at two years): 0.83
Key secondary endpoint, HR AMR101 group versus placebo patients with no change or a decrease in hsCRP ([1]; hsCRP at two years): 0.85
Primary endpoint, HR AMR101 group versus placebo patients with an increase in hsCRP ([1]; hsCRP at two years): 0.79
Primary endpoint, HR AMR101 group versus placebo patients with no change or a decrease in hsCRP ([1]; hsCRP at two years): 0.83
Early study drug discontinuation: adverse event [2]: 9.2%
